Results published in ChEMBL document CHEMBL1148126, “Triterpenoid constituents of Raulinoa echinata” (J Nat Prod, 2002).
Values after ≈ are worked out from the molar mass of the structure shown.

Legend:
[1] = Toxicity in Artemia salina; format: organism-based; settings: in vivo, read-out: LD50 (the source's name)
[2] = system: Trypanosoma cruzi; test: Antitrypanosomal activity against Trypanosoma cruzi Y trypomastigotes; format: functional, organism-based

Compound	LC50 [1] [mg/L]	IC50 [2] [mg/L]
CNc1ccccc1C(=O)O[C@H]1CC[C@]2(C)[C@H]3CC[C@]45C[C@]4(CC[C@H]5[C@@H]4C[C@H]([C@H](O)C(C)(C)O)O[C@H]4OC)[C@]3(C)[C@H](O)C[C@H]2C1(C)C	> 100	> 1000
CO[C@H]1O[C@@H]([C@H](O)C(C)(C)OC)C[C@H]1[C@@H]1CC[C@]2(C)C3=CC[C@H]4C(C)(C)C(=O)CC[C@]4(C)[C@H]3CC[C@@]12C	> 100	114 (≈ 222 µM)
CO[C@@H]1O[C@@H]([C@H](O)C(C)(C)OC)C[C@H]1[C@@H]1CC[C@]2(C)C3=CC[C@H]4C(C)(C)C(=O)CC[C@]4(C)[C@H]3CC[C@@]12C	> 100	135 (≈ 261 µM)
CNc1ccccc1C(=O)O[C@H]1CC[C@]2(C)[C@H]3CC[C@]45C[C@]4(CC[C@H]5[C@@H]4C[C@H]([C@H](O)C(C)(C)O)OC4O)[C@]3(C)[C@H](O)C[C@H]2C1(C)C (stereo partly specified)	> 100	> 1000
CNc1ccccc1C(=O)O[C@H]1CC[C@]2(C)[C@H]3CC[C@]45C[C@]4(CC[C@H]5[C@@H]4C[C@H]([C@H](O)C(C)(C)O)O[C@@H]4OC)[C@]3(C)[C@H](O)C[C@H]2C1(C)C	> 100	> 1000
CN(C)c1ccc(C(=C2C=CC(=[N+](C)C)C=C2)c2ccc(N(C)C)cc2)cc1.[Cl-] [GENTIAN VIOLET]		7.5
